Reference: patent publication US20250144094A1 (Erasca, Inc., priority 2021, published 2025)

Target: Recombinant human ULK1 (1-649) (Homo sapiens (Human), UniProt O75385)
Experiment: ULK1 ADP Glo kinase activity assay, new method (ULKtide peptide substrate)
Settings: 25° C., 40 minutes, read-out: ULK1 biochemical IC50
Method in brief: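 Kinase activity was read as ADP production (ADP-Glo, luminescence 30 min after detection reagent) following a 40-min, 25 °C reaction of Sf9-expressed GST-ULK1 (1-649) with ULKtide substrate and ATP. Compounds ran as 12-point series starting at 10 μM; four-parameter curve fitting versus DMSO wells gave IC50.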

Chain of Recombinant human ULK1 (1-649) (O75385 1-649): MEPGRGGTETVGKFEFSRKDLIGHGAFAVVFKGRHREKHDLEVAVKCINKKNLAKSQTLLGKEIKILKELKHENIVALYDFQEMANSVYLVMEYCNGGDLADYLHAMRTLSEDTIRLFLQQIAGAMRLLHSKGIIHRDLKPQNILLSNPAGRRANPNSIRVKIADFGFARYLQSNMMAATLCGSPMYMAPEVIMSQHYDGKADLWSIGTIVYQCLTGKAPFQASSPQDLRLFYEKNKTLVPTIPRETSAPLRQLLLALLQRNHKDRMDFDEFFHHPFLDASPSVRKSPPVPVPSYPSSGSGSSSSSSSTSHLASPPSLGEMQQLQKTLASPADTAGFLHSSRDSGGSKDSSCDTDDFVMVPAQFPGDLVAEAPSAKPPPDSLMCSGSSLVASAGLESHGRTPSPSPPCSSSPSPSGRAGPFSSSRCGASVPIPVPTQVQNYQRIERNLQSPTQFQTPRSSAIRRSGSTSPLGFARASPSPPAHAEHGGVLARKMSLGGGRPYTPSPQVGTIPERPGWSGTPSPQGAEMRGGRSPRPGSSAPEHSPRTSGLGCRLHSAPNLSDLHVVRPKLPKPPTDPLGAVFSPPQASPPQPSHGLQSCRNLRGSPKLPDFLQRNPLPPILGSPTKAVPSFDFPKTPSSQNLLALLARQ

SMILES	IC50 [nM]
CCc1cc(C2CCN(CC(F)F)CC2)ccc1Nc1ncc(C(F)(F)F)c(-c2cc3c(s2)C(=O)N(C2COC2)CCS3(=O)=O)n1 [Example 296, 7-(2-((4-(1-(2,2-difluoroethyl)piperidin-4-yl)-2-ethylphenyl)amino)-5-(trifluoromethyl)pyrimidin-4-yl)-4-(oxetan-3-yl)-3,4-dihydrothieno[2,3-f][1,4]thiazepin-5(2H)-one 1,1-dioxide]	5 to 10
CCc1cc(C2CCN(CC(F)(F)F)CC2)ccc1Nc1ncc(C(F)(F)F)c(-c2cc3c(s2)C(=O)N(C2COC2)CCS3(=O)=O)n1 [Example 298, 7-(2-((2-Ethyl-4-(1-(2,2,2-trifluoroethyl)piperidin-4-yl)phenyl)amino)-5-(trifluoromethyl)pyrimidin-4-yl)-4-(oxetan-3-yl)-3,4-dihydrothieno[2,3-f][1,4]thiazepin-5(2H)-one 1,1-dioxide]	10 to 50
CC(C)(F)CN1CCc2cc(Nc3ncc(C(F)(F)F)c(-c4cc5c(s4)C(=O)N(C4CC4)CCS5(=O)=O)n3)c(C3CC3)cc2C1 [Example 299, 4-cyclopropyl-7-(2-((7-cyclopropyl-2-(2-fluoro-2-methylpropyl)-1,2,3,4-tetrahydroisoquinolin-6-yl)amino)-5-(trifluoromethyl)pyrimidin-4-yl)-3,4-dihydrothieno[2,3-f][1,4]thiazepin-5(2H)-one 1,1-dioxide]	10 to 50
CC(C)(F)CN1CCc2cc(Nc3ncc(C(F)(F)F)c(-c4cc5c(s4)C(=O)N(C4COC4)CCS5(=O)=O)n3)c(C3CC3)cc2C1 [Example 300, 7-(2-((7-cyclopropyl-2-(2-fluoro-2-methylpropyl)-1,2,3,4-tetrahydroisoquinolin-6-yl)amino)-5-(trifluoromethyl)pyrimidin-4-yl)-4-(oxetan-3-yl)-3,4-dihydrothieno[2,3-f][1,4]thiazepin-5(2H)-one 1,1-dioxide]	10 to 50
O=C1c2sc(-c3nc(Nc4ccc(N5C[C@H]6CC[C@@H](C5)N6)cc4C4CC4)ncc3C(F)(F)F)cc2S(=O)(=O)CCN1C1CC1 [Example 307, 7-(2-((4-((1R,5S)-3,8-diazabicyclo[3.2.1]octan-3-yl)-2-cyclopropylphenyl)amino)-5-(trifluoromethyl)pyrimidin-4-yl)-4-cyclopropyl-3,4-dihydrothieno[2,3-f][1,4]thiazepin-5(2H)-one 1,1-dioxide]	≤ 5
O=C1c2sc(-c3nc(Nc4cc5c(cc4C4CC4)CN(CCOC(F)(F)F)CC5)ncc3C(F)(F)F)cc2S(=O)(=O)CCN1C1COC1 [Example 312, 7-(2-((7-cyclopropyl-2-(2-(trifluoromethoxy)ethyl)-1,2,3,4-tetrahydroisoquinolin-6-yl)amino)-5-(trifluoromethyl)pyrimidin-4-yl)-4-(oxetan-3-yl)-3,4-dihydrothieno[2,3-f][1,4]thiazepin-5(2H)-one 1,1-dioxide]	5 to 10
CN1[C@@H]2CC[C@H]1CN(c1ccc(Nc3ncc(C(F)(F)F)c(-c4cc5c(s4)C(=O)N(C4CC4)CCS5(=O)=O)n3)c(C3CC3)c1)C2 [Example 313, 4-cyclopropyl-7-(2-((2-cyclopropyl-4-((1R,5S)-8-methyl-3,8-diazabicyclo[3.2.1]octan-3-yl)phenyl)amino)-5-(trifluoromethyl)pyrimidin-4-yl)-3,4-dihydrothieno[2,3-f][1,4]thiazepin-5(2H)-one 1,1-dioxide]	≤ 5
O=C1c2sc(-c3nc(Nc4cc5c(cc4C4CC4)CN(CCOC(F)(F)F)CC5)ncc3C(F)(F)F)cc2S(=O)(=O)CCN1C1CC1 [Example 314, 4-cyclopropyl-7-(2-((7-cyclopropyl-2-(2-(trifluoromethoxy)ethyl)-1,2,3,4-tetrahydroisoquinolin-6-yl)amino)-5-(trifluoromethyl)pyrimidin-4-yl)-3,4-dihydrothieno[2,3-f][1,4]thiazepin-5(2H)-one 1,1-dioxide]	10 to 50
C[C@@H]1CN(c2ccc(Nc3ncc(C(F)(F)F)c(-c4cc5c(s4)C(=O)N(C4COC4)CCS5(=O)=O)n3)c(C3CC3)c2)CCN1 [Example 315, (R)-7-(2-((2-cyclopropyl-4-(3-methylpiperazin-1-yl)phenyl)amino)-5-(trifluoromethyl)pyrimidin-4-yl)-4-(oxetan-3-yl)-3,4-dihydrothieno[2,3-f][1,4]thiazepin-5(2H)-one 1,1-dioxide]	≤ 5
C[C@@H]1CN(c2ccc(Nc3ncc(C(F)(F)F)c(-c4cc5c(s4)C(=O)N(C4COC4)CCS5(=O)=O)n3)c(C3CC3)c2)CCN1C [Example 316, (R)-7-(2-((2-cyclopropyl-4-(3,4-dimethylpiperazin-1-yl)phenyl)amino)-5-(trifluoromethyl)pyrimidin-4-yl)-4-(oxetan-3-yl)-3,4-dihydrothieno[2,3-f][1,4]thiazepin-5(2H)-one 1,1-dioxide]	≤ 5

Next, values leading:

IC50 [nM]	SMILES
≤ 5	CC1(C)CC(CN2CCc3cc(Nc4ncc(C(F)(F)F)c(-c5cc6c(s5)C(=O)N(C5CC5)CCS6(=O)=O)n4)c(C4CC4)cc3C2)O1 (stereo not drawn) [Example 297, 4-Cyclopropyl-7-(2-((7-cyclopropyl-2-((4,4-dimethyloxetan-2-yl)methyl)-1,2,3,4-tetrahydroisoquinolin-6-yl)amino)-5-(trifluoromethyl)pyrimidin-4-yl)-3,4-dihydrothieno[2,3-f][1,4]thiazepin-5(2H)-one 1,1-dioxide]
≤ 5	O=C1c2sc(-c3nc(Nc4cc5c(cc4C4CC4)CN(C4CC4)CC5)ncc3C(F)(F)F)cc2S(=O)(=O)CCN1C1COC1 [Example 301, 7-(2-((2,7-dicyclopropyl-1,2,3,4-tetrahydroisoquinolin-6-yl)amino)-5-(trifluoromethyl)pyrimidin-4-yl)-4-(oxetan-3-yl)-3,4-dihydrothieno[2,3-f][1,4]thiazepin-5(2H)-one 1,1-dioxide]
≤ 5	CN1CCS(=O)(=O)c2cc(-c3nc(Nc4cc5c(cc4Cl)CNCC5)ncc3C(F)(F)F)sc2S1(=O)=O [Example 302, 7-(2-((7-chloro-1,2,3,4-tetrahydroisoquinolin-6-yl)amino)-5-(trifluoromethyl)pyrimidin-4-yl)-2-methyl-3,4-dihydro-2H-thieno[3,2-f][1,5,2]dithiazepine 1,1,5,5-tetraoxide]
≤ 5	O=C1c2sc(-c3nc(Nc4cc5c(nc4C4CC4)CNCC5)ncc3C(F)(F)F)cc2S(=O)(=O)CCN1C1CC1 [Example 303, 4-cyclopropyl-7-(2-((2-cyclopropyl-5,6,7,8-tetrahydro-1,7-naphthyridin-3-yl)amino)-5-(trifluoromethyl)pyrimidin-4-yl)-3,4-dihydrothieno[2,3-f][1,4]thiazepin-5(2H)-one 1,1-dioxide]
≤ 5	O=C1c2sc(-c3nc(Nc4cc5c(nc4C4CC4)CNCC5)ncc3C(F)(F)F)cc2S(=O)(=O)CCN1C1COC1 [Example 304, 7-(2-((2-cyclopropyl-5,6,7,8-tetrahydro-1,7-naphthyridin-3-yl)amino)-5-(trifluoromethyl)pyrimidin-4-yl)-4-(oxetan-3-yl)-3,4-dihydrothieno[2,3-f][1,4]thiazepin-5(2H)-one 1,1-dioxide]
≤ 5	O=C1c2sc(-c3nc(Nc4ccc(N5C[C@@H]6C[C@H]5CN6)cc4C4CC4)ncc3C(F)(F)F)cc2S(=O)(=O)CCN1C1CC1 [Example 305, 7-(2-((4-((1S,4S)-2,5-diazabicyclo[2.2.1]heptan-2-yl)-2-cyclopropylphenyl)amino)-5-(trifluoromethyl)pyrimidin-4-yl)-4-cyclopropyl-3,4-dihydrothieno[2,3-f][1,4]thiazepin-5(2H)-one 1,1-dioxide]
≤ 5	CN1C[C@@H]2C[C@H]1CN2c1ccc(Nc2ncc(C(F)(F)F)c(-c3cc4c(s3)C(=O)N(C3CC3)CCS4(=O)=O)n2)c(C2CC2)c1 [Example 306, 4-Cyclopropyl-7-(2-((2-cyclopropyl-4-((1S,4S)-5-methyl-2,5-diazabicyclo[2.2.1]heptan-2-yl)phenyl)amino)-5-(trifluoromethyl)pyrimidin-4-yl)-3,4-dihydrothieno[2,3-f][1,4]thiazepin-5(2H)-one 1,1-dioxide]
≤ 5	C[C@@H]1CN(c2ccc(Nc3ncc(C(F)(F)F)c(-c4cc5c(s4)C(=O)N(C4CC4)CCS5(=O)=O)n3)c(C3CC3)c2)CCN1 [Example 308, (R)-4-cyclopropyl-7-(2-((2-cyclopropyl-4-(3-methylpiperazin-1-yl)phenyl)amino)-5-(trifluoromethyl)pyrimidin-4-yl)-3,4-dihydrothieno[2,3-f][1,4]thiazepin-5(2H)-one 1,1-dioxide]
≤ 5	C[C@@H]1CN(c2ccc(Nc3ncc(C(F)(F)F)c(-c4cc5c(s4)C(=O)N(C4CC4)CCS5(=O)=O)n3)c(C3CC3)c2)CCN1C [Example 309, (R)-4-cyclopropyl-7-(2-((2-cyclopropyl-4-(3,4-dimethylpiperazin-1-yl)phenyl)amino)-5-(trifluoromethyl)pyrimidin-4-yl)-3,4-dihydrothieno[2,3-f][1,4]thiazepin-5(2H)-one 1,1-dioxide]
≤ 5	O=C1c2sc(-c3nc(Nc4ccc(N5C[C@@H]6C[C@H]5CN6)cc4C4CC4)ncc3C(F)(F)F)cc2S(=O)(=O)CCN1C1COC1 [Example 310, 7-(2-((4-((1S,4S)-2,5-diazabicyclo[2.2.1]heptan-2-yl)-2-cyclopropylphenyl)amino)-5-(trifluoromethyl)pyrimidin-4-yl)-4-(oxetan-3-yl)-3,4-dihydrothieno[2,3-f][1,4]thiazepin-5(2H)-one 1,1-dioxide]
≤ 5	O=S1(=O)CCNS(=O)(=O)c2sc(-c3nc(Nc4cc5c(cc4C4CC4)CNCC5)ncc3C(F)(F)F)cc21 [Example 311, 7-(2-((7-cyclopropyl-1,2,3,4-tetrahydroisoquinolin-6-yl)amino)-5-(trifluoromethyl)pyrimidin-4-yl)-3,4-dihydro-2H-thieno[3,2-f][1,5,2]dithiazepine 1,1,5,5-tetraoxide]
